Experimental data taken from ChEMBL document CHEMBL4373715, “Discovery and Biological Evaluations of Halogenated 2,4-Diphenyl Indeno[1,2-b]pyridinol Derivatives as Potent Topoisomerase IIα-Targeted Chemotherapeutic Agents for Breast Cancer” (J Med Chem, 2019).

Assays:
[1] = system: HeLa; test: Antiproliferative activity against human HeLa cells measured after 72 hrs by EZ-Cytox assay; format: functional, cell-based
[2] = system: HCT-15; test: Antiproliferative activity against human HCT15 cells measured after 72 hrs by EZ-Cytox assay; format: functional, cell-based; details: HCT-15, 72 h
[3] = system: DU-145; test: Antiproliferative activity against human DU145 cells measured after 72 hrs by EZ-Cytox assay; format: functional, cell-based; details: DU-145, 72 h
[4] = system: T47D; test: Antiproliferative activity against human T47D cells measured after 72 hrs by EZ-Cytox assay; format: functional, cell-based
[5] = target: T1, DNA topoisomerase 1 (Homo sapiens) (UniProt P11387); test: Inhibition of recombinant human topoisomerase 1-mediated relaxation of supercoiled pBR322 DNA at 100 uM measured after 30 mins by ethidium bromide staining based agarose gel electrophoresis relative to control
T1 sequence (whole entry): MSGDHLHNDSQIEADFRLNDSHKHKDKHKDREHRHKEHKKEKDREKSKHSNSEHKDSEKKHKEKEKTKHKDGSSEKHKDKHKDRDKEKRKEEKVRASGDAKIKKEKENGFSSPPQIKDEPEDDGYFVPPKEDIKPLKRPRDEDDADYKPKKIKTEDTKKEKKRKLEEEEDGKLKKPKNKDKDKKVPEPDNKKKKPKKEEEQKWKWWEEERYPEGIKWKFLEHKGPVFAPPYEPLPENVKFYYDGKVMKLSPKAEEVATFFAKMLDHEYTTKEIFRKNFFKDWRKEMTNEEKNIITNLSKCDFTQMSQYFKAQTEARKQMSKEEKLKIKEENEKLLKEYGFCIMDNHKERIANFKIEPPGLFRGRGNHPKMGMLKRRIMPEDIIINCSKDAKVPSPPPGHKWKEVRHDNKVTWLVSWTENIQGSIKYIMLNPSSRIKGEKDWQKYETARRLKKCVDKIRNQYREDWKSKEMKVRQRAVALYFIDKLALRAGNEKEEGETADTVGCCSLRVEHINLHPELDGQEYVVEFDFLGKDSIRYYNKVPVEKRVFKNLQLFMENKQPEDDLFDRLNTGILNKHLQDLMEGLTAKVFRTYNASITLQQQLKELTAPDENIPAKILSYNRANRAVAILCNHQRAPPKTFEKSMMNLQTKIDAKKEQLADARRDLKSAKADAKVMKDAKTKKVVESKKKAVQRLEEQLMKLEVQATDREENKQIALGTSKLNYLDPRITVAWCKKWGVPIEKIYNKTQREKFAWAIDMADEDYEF

[6] = target: DNA topoisomerase 2-alpha (Homo sapiens) (UniProt P11388); test: Inhibition of recombinant human topoisomerase 2alpha-mediated relaxation of supercoiled pBR322 DNA at 100 uM measured after 30 mins by ethidium bromide staining based agarose gel electrophoresis relative to control
Chain of DNA topoisomerase 2-alpha (Homo sapiens) (P11388 whole entry): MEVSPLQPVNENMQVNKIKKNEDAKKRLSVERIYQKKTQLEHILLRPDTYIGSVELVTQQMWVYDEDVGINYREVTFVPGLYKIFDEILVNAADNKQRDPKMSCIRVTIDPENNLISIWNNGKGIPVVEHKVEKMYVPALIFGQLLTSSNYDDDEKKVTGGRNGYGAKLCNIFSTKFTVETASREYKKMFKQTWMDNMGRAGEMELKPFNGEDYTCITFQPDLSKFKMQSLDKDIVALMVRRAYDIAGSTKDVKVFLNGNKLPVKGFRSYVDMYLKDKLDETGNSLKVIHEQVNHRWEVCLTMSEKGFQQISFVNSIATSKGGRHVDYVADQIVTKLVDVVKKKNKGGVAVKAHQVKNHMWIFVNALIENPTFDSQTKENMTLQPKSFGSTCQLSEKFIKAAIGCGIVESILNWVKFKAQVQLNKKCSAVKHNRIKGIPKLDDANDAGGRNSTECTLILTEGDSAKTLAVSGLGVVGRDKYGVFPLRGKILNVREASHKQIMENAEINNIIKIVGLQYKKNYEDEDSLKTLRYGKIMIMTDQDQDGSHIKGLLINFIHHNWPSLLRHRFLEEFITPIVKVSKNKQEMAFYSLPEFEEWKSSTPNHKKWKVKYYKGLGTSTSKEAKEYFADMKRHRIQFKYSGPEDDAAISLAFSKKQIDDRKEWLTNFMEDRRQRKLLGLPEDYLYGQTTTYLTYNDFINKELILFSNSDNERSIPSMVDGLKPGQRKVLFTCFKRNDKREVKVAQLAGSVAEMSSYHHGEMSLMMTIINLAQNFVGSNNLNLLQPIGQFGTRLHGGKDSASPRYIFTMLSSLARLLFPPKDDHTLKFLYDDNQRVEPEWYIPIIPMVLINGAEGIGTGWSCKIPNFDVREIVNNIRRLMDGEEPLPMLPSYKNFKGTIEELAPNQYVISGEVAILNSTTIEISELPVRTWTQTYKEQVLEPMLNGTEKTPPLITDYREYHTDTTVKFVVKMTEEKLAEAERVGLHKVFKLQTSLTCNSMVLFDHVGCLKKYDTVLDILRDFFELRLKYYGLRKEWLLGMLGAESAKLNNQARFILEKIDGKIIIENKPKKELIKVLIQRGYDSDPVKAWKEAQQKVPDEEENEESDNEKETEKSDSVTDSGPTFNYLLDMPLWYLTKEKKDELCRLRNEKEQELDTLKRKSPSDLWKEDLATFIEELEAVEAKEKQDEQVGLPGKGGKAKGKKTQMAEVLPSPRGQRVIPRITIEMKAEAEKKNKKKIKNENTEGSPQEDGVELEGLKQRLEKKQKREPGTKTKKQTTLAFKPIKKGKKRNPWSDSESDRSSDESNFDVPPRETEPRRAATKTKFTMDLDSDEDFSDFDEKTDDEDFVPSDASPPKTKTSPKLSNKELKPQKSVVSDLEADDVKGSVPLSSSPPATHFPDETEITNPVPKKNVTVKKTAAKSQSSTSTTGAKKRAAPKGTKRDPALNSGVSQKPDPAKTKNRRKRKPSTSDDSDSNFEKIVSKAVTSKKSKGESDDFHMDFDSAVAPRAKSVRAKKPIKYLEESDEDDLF

SMILES	IC50 [1] [µM]	IC50 [2] [µM]	IC50 [3] [µM]	IC50 [4] [µM]	inhibition [5] [%]	inhibition [6] [%]
Oc1ccc(-c2cc(-c3cccc(Cl)c3)nc3c2Cc2cccc(O)c2-3)cc1	6.23	1.3	0.03	0.83	0	24.4
Oc1cccc(-c2cc(-c3ccccc3F)nc3c2Cc2c(O)cccc2-3)c1	6.75	4.98	2.03	2.71	9.7	22.4
Oc1cccc(-c2cc(-c3ccccc3)c3c(n2)-c2cc(O)ccc2C3)c1	> 50	> 50	0.42	> 50	0	3.5
Oc1ccccc1-c1cc(-c2ccccc2F)nc2c1Cc1cccc(O)c1-2	7.63	3.76	9.9	4.56	0	0.6
Oc1ccc(-c2cc(-c3ccc(Cl)cc3)nc3c2Cc2cccc(O)c2-3)cc1	> 50	> 50	2.8	> 50	0.2	26.2
Oc1ccc2c(c1)Cc1c(-c3ccccc3O)cc(-c3ccc(F)cc3)nc1-2	14.3	4.61	4.76	3.14	0	6
Oc1cccc(-c2cc(-c3ccccc3)nc3c2Cc2ccc(O)cc2-3)c1	1.38	1.37	1.57	0.84	0.5	1.2
Oc1cccc(-c2cc(-c3ccccc3F)nc3c2Cc2cccc(O)c2-3)c1	12.1	8.33	1.88	0.83	4	8.7
Oc1ccc2c(c1)-c1nc(-c3ccccc3O)cc(-c3ccccc3)c1C2	> 50	> 50	1.87	> 50	0	2.8
Oc1ccc(-c2cc(-c3ccccc3)nc3c2Cc2ccc(O)cc2-3)cc1	> 50	> 50	1.38	2.99	6	2.4
Oc1ccc(-c2cc(-c3ccccc3C(F)(F)F)nc3c2Cc2cccc(O)c2-3)cc1	> 50	> 50	> 50	1.44	3	2.9
Oc1cccc(-c2cc(-c3ccccc3F)nc3c2Cc2ccc(O)cc2-3)c1	3.74	2.96	0.4	2.97	16.3	28.1
Oc1cccc(-c2cc(-c3ccc(F)cc3)nc3c2Cc2cccc(O)c2-3)c1	8.81	4.04	3.3	2.24	2.3	27.3
Oc1ccc2c(c1)Cc1c(-c3ccccc3O)cc(-c3cccc(F)c3)nc1-2	2.43	4.23	3.13	0.86	0	28
Oc1ccc(-c2cc(-c3ccc(F)cc3)nc3c2Cc2cc(O)ccc2-3)cc1	3.84	4.4	1.59	1.85	8	17.1
Oc1ccc2c(c1)Cc1c(-c3ccccc3)cc(-c3ccccc3O)nc1-2	> 50	> 50	1.62	> 50	2	19
Oc1ccc2c(c1)-c1nc(-c3cccc(F)c3)cc(-c3ccccc3O)c1C2	4.22	2.9	0.86	0.68	0	28.3
Oc1ccccc1-c1cc(-c2ccccc2)c2c(n1)-c1c(O)cccc1C2	> 50	> 50	9.61	> 50	1	1.2
Oc1cccc(-c2cc(-c3ccc(F)cc3)nc3c2Cc2c(O)cccc2-3)c1	6.71	2.68	0.56	1.72	26.2	27.8

SMILES	IC50 [1] [µM]	IC50 [2] [µM]	IC50 [3] [µM]	IC50 [4] [µM]	inhibition [5] [%]	inhibition [6] [%]
Oc1cccc(-c2cc(-c3ccccc3)nc3c2Cc2cccc(O)c2-3)c1	2.03	1.48	0.72	2.01	1.6	6.3
Oc1ccc(-c2cc(-c3ccccc3)c3c(n2)-c2c(O)cccc2C3)cc1	2.06	> 50	0.66	11.6	1.1	3.7
Oc1ccc(-c2cc(-c3ccccc3)nc3c2Cc2cc(O)ccc2-3)cc1	2.75	> 50	2.48	3.55	11.1	2.5
Oc1ccc(-c2cc(-c3ccccc3F)nc3c2Cc2ccc(O)cc2-3)cc1	> 50	> 50	14.1	29.2	3.3	6.4
Oc1cccc(-c2cc(-c3ccccc3)c3c(n2)-c2cccc(O)c2C3)c1	6.2	1.58	0.52	3.92	0.4	4.5
Oc1ccc(-c2cc(-c3cccc(F)c3)nc3c2Cc2c(O)cccc2-3)cc1	7.3	4.75	2.04	0.57	8.6	0.7
Oc1cccc(-c2cc(-c3cccc(F)c3)nc3c2Cc2cccc(O)c2-3)c1	15	> 50	0.94	1.16	14	17.8
Oc1ccc(-c2cc(-c3cccc(F)c3)nc3c2Cc2cc(O)ccc2-3)cc1	6.76	3.57	1.44	1.34	8.7	4.5
Oc1ccccc1-c1cc(-c2ccccc2F)nc2c1Cc1c(O)cccc1-2	4.18	3.39	2.71	1.77	0	24.1
Oc1ccccc1-c1cc(-c2cccc(F)c2)nc2c1Cc1cccc(O)c1-2	7.9	5.03	9.97	0.74	0	8.4
Oc1ccc(-c2cc(-c3ccccc3F)nc3c2Cc2cc(O)ccc2-3)cc1	4.84	3.01	1.26	1.39	12.2	10.6
Oc1ccc(-c2cc(-c3ccccc3)c3c(n2)-c2cccc(O)c2C3)cc1	5.74	1.02	0.37	6.23	5.3	4.4
Oc1ccc2c(c1)Cc1c(-c3ccccc3O)cc(-c3ccccc3F)nc1-2	4.94	3.37	3.82	0.7	0	13.4
Oc1ccc(-c2cc(-c3ccccc3)nc3c2Cc2c(O)cccc2-3)cc1	1.94	2.78	1.28	2.89	4.4	1.5
Oc1ccc2c(c1)-c1nc(-c3ccccc3F)cc(-c3ccccc3O)c1C2	4.36	2.98	4.07	0.61	0	27
Oc1ccccc1-c1cc(-c2ccccc2)c2c(n1)-c1cccc(O)c1C2	1.83	> 50	2.49	6.43	6.6	1.1
Oc1ccc(-c2cc(-c3ccccc3F)nc3c2Cc2c(O)cccc2-3)cc1	6.19	2.81	1.81	0.87	5.4	15.3
Oc1ccc(-c2cc(-c3cccc(F)c3)nc3c2Cc2ccc(O)cc2-3)cc1	8.63	4.49	4.83	0.7	3	6.2
Oc1cccc(-c2cc(-c3ccc(C(F)(F)F)cc3)nc3c2Cc2c(O)cccc2-3)c1	6.3	6.98	5.01	6.15	0.7	10.9
